These molecules were tested against T1, human MPO (Homo sapiens, UniProt P05164) (assay: MPO inhibition screen (TMB oxidation, absorbance), with or without added tyrosine). Details: in the presence of tyrosine (final 8 uM); human MPO 2.5 nM; H2O2 100 μM; pH 6.5.
T1 sequence (P05164 49-745): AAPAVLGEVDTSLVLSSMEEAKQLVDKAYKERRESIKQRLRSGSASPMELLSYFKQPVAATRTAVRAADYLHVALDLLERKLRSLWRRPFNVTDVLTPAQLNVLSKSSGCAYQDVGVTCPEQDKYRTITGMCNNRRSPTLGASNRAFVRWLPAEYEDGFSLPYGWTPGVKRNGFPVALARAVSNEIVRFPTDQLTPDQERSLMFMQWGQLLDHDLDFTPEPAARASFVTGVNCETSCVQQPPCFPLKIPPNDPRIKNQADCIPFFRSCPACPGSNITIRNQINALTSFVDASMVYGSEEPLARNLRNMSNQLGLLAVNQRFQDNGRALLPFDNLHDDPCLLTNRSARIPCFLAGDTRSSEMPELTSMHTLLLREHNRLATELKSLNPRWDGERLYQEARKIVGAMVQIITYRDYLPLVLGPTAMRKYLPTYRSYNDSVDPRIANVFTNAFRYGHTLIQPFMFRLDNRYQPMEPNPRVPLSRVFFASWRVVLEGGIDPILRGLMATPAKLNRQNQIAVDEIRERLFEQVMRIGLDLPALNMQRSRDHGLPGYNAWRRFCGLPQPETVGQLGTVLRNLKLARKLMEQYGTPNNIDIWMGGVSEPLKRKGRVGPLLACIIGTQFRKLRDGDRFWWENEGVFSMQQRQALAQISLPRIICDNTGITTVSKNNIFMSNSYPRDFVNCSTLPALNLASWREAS
Format: biochemical
Description: Methods for the determination of MPO inhibitory activity are disclosed in co-pending patent application WO 02/090575. The pharmacological activity of compounds according to the invention was tested in the following screen in which the compounds were either tested alone or in the presence of added tyrosine:
Assay buffer: 20 mM sodium/potassium phosphate buffer pH 6.5 containing 10 mM taurine and 100 mM NaCl.
Developing reagent: 2 mM 3,3 ′,5,5′-tetramethylbenzidine (TMB), 200 μM KI, 200 mM acetate buffer pH 5.4 with 20% DNF.
To 10 μl of diluted compounds in assay buffer, 40 μl of human MPO (final concentration 2.5 nM), with or without 20 μM tyrosine (final concentration, if present, 8 uM), was added and the mixture was incubated for 10 minutes at ambient temperature. Then 50 μl of H2O2 (final concentration 100 μM), or assay buffer alone as a control, were added. After incubation for 10 minutes at ambient temperature, the reaction was stopped by adding 10 μl 0.2 mg/ml of catalase (final concentration 18 μg/ml). The reaction mixture was left for an additional 5 minutes before 100 μl of TMB developing reagent was added. The amount of oxidised 3,3′,5,5′-tetramethylbenzidine formed was then measured after about 5 minutes using absorbance spectroscopy at about […]. IC50 values were then determined using standard procedures.
`COc1ccc(OCc2n[nH]c(=S)n2CC2CCCO2)cc1` (stereo not shown) [Example 20, 5-(4-Methoxyphenoxymethyl)-4-(2-tetrahydrofuran-2-yl-methyl)-2,4-dihydro-[1,2,4]triazole-3-thione] gave an IC50 of 11.3 µM.
With `Fc1ccc(-n2c(Cc3ccccc3Cl)n[nH]c2=S)cc1` [Example 29, 5-(2-Chlorobenzyl)-4-(4-fluorophenyl)-2,4-dihydro-[1,2,4]triazole-3-thione] the IC50 was 3.9 µM.
`OCC(c1ccccc1)c1n[nH]c(=S)n1-c1ccccc1` (stereo not shown) [Example 57, 5-(2-Hydroxy-1-phenylethyl)-4-phenyl-2,4-dihydro-[1,2,4]triazole-3-thione] showed an IC50 of 23.6 µM.
`Cc1ccccc1-n1c(Cc2c[nH]c3ccccc23)n[nH]c1=S` [Example 74, 5-(1H-Indol-3-ylmethyl)-4-(2-methylphenyl)-2,4-dihydro-[1,2,4]triazole-3-thione] showed an IC50 of 7.2 µM.

From US20070093483A1, “Use of derivatives of 2, 4-dihydro-[1,2,4] triazole-3-thione as inhibitors of the enzyme myeloperoxidase (mpo)” (ASTRAZENECA AB, priority 2003, published 2007)
